Data taken from article PMC7522794, “Synthesis and evaluation of novel 2,4-disubstituted arylthiazoles against T. brucei” (RSC Medicinal Chemistry, 2019).

Columns and labels:
L6 cells = assay: Cytotoxic activity against rat skeletal myoblast L6 cells (Alamar Blue); assay type: cell-based; conditions: ratio of IC50 values obtained with L6 cells and T. brucei
Experimental: (§1) Cytotoxicity against mammalian cells was assessed using microtitre plates. Briefly, L6 cells (a rat skeletal muscle line) were seeded at 1 × 10^4 mL^–1 in 200 μL of growth medium containing 7 different compound concentrations in a range previously established to encompass both the IC50 and IC90 values. The plates were incubated for 6 days at 37 °C and 20 μL Alamar Blue (Biosource UK Ltd) was then added to each well. After an additional 8 hours incubation, the fluorescence was determined using a FLUOstar Omega fluorescent plate reader (BMG Labtech). Inhibition of growth was calculated by comparison with control values and IC50 and IC90 values were determined in triplicate using linear regression analysis.

[1] = as above; assay type: cell-based; conditions: rat, L6 cells (rat skeletal muscle line); cytotoxicity, 6 days incubation + 8 hours Alamar Blue
Experimental: as §1

[2] = test system: Bloodstream form T. brucei (strain 427); assay: Trypanocidal activity against bloodstream form T. brucei (Alamar Blue growth inhibition); assay type: cell-based, Trypanosoma brucei; conditions: Trypanosoma brucei, 48 hours + overnight Alamar Blue; for IC50: concentration that inhibits growth by 50%; for IC90: concentration that inhibits growth by 90%
Experimental: Bloodstream form T. brucei (strain 427) were cultured at 37 °C in modified Iscove's medium. Trypanocidal activity was assessed by growing parasites in microtiter plates in the presence of various drug concentrations. […] The plates were incubated for 48 hours at 37 °C and 20 μL Alamar Blue was then added to each well. After an additional overnight incubation, the fluorescence was determined. Inhibition of growth was calculated by comparison with control values and IC50 and IC90 values were determined in triplicate using linear regression analysis.

| melting point | SMILES | S.I. (selectivity index) (L6 cells) | IC50 [1] [µM] | IC50 [2] [µM] | IC90 [2] [µM] |
| --- | --- | --- | --- | --- | --- |
| 261 to 263 °C | Br.NCCc1nc(-c2ccc(C34CC5CC(CC(C5)C3)C4)cc2)cs1 [Compound 3c, 2-{4-[4-(1-Tricyclo[3.3.1.1^3,7]decyl)phenyl]thiazol-2-yl}ethanamine hydrobromide] | 1.5 | 4.16 ± 0.24 | 2.74 ± 0.29 | 4.4 ± 0.07 |
| – | CN(C)CCc1csc(-c2ccc(F)c(C34CC5CC(CC(C5)C3)C4)c2)n1 [Compound 1c, 2-{2-[3-(1-Tricyclo[3.3.1.1^3,7]decyl)-4-fluorophenyl]thiazol-4-yl}-N,N-dimethylethyl-1-amine] | 1.9 | 1.53 ± 0.09 | 0.79 ± 0.02 | 1.03 ± 0.01 |
| – | NCCc1csc(-c2ccc(F)c(C34CC5CC(CC(C5)C3)C4)c2)n1 [Compound 1a, 2-{2-[3-(1-Tricyclo[3.3.1.1^3,7]decyl)-4-fluorophenyl]thiazol-4-yl}ethan-1-amine] | 2.5 | 1.05 ± 0.23 | 0.42 ± 0.01 | 0.56 ± 0.01 |
| 345 °C (dec.) | Br.Nc1nc(-c2ccc(C34CC5CC(CC(C5)C3)C4)cc2)cs1 [Compound 3a, 4-[4-(1-Tricyclo[3.3.1.1^3,7]decyl)phenyl]thiazol-2-amine hydrobromide] | <1 | 13.8 ± 1.6 | 22.5 ± 0.6 | 30.5 ± 4.5 |
| – | O=C(NCCc1csc(-c2ccc(F)c(C34CC5CC(CC(C5)C3)C4)c2)n1)N1CCCCC1 [Compound 1j, N-{2-[2-(3-(1-Tricyclo[3.3.1.1^3,7]decyl)-4-fluorophenyl)thiazol-4-yl}ethyl)piperidine-1-yl-carboxamide] | <1 | < 10.3 | 10.7 ± 0.3 | 12.6 ± 0.2 |

| SMILES | melting point | S.I. (selectivity index) (L6 cells) | IC50 [1] [µM] | IC50 [2] [µM] | IC90 [2] [µM] |
| --- | --- | --- | --- | --- | --- |
| Br.CN(C)CCc1nc(-c2ccc(C34CC5CC(CC(C5)C3)C4)cc2)cs1 [Compound 3d, 2-{4-[4-(1-Tricyclo[3.3.1.1^3,7]decyl)phenyl]thiazol-2-yl}-N,N-dimethylethan-1-amine dihydrochloride] | 200 to 202 °C | 2.3 | 3.19 ± 0.25 | – | – |
